The assay deals with Ovarian Cancer Cells SKOV3. Kind of assay: Effect on the proliferation of ovarian cancer cells SKOV3 (MTT). In kind it is cell-based. The note with it: Homo sapiens, SK-OV-3, n = 3. On the procedure:
Cells in the logarithmic growth phase were digested with trypsin, added to a 96-well plate, in a density of 6×10^3 cells/well, and cultured in a 37° C., 5% CO2 incubator. The next day, the plated was transferred to and kept in a 4° C. incubator for 1 h after the adherence of most cells, so as to achieve synchronized growth of the cells. The supernatant was sucked out, and a RPMI 1640 medium containing 10% fetal calf serum (FCS) was added, 200 μL/well. The cells were grouped according to the design of the experiment. The injectable solution of the compound prepared with sterile physiological saline was added to the 96 wells, 200 μL/well, so that the concentrate of the medicament in each well were 1 mg/mL, 2 mg/mL and 5 mg/mL, respectively. A concentration of 0 mg/mL was used as a negative control group. After subsequent cultivation for 24, 48, or 72 h, 20 μL MTT solution (with a concentration of 5 mg/mL) was added to each well, respectively. The plate was shaken gently, returned to the incubator and incubated for another 4 h. Then the supernatant was sucked out completely, and 200 μL of dimethyl sulfoxide was added to each well. The plate was shaken for 5-10 min on a shaker. The absorption (A=580) of each well at a wavelength of 580 nm was measured using a microplate reader. The A=580 value was proportional to the number of live cells.

For `CCN(CC)CCOc1ccc(C(=O)c2oc3cc4c(cc3c2-c2ccc(O)cc2)CCCO4)cc1` [Example 56, 2-[4-(diethylaminoethoxy)benzoyl]-3-(4-hydroxyphenyl)-6,7-dihydrogen-5H-furo[3,2-g]chromene], the IC50 (in general, the concentration at which inhibition is half-maximal) is 17.9 µM.

(Values after patent US8877949B2, “Furo[3,2-g]chromene compounds and uses thereof” (Shenyang Pharmaceutical University, priority 2010, dated 2014).)
